In test [1] the target is Somatostatin receptor type 3 (Homo sapiens, UniProt P32745). Kind of test: Inhibition of [125I](Leu8,DTrp22,Tyr25)-SRIF28 binding to human sst3.
Test [2] deals with Somatostatin receptor type 2 (Homo sapiens, UniProt P30874). The test is described as follows: Inhibition of [125I](Leu8,DTrp22,Tyr25)-SRIF28 binding to human sst2.
The target of test [3] is Somatostatin receptor type 1 (Homo sapiens, UniProt P30872). The test is described as follows: Inhibition of [125I](Leu8,DTrp22,Tyr25)-SRIF28 binding to human sst1.
Test [4] concerns the target Somatostatin receptor type 4 (Homo sapiens, UniProt P31391). Kind of test: Inhibition of [125I](Leu8,DTrp22,Tyr25)-SRIF28 binding to human sst4.
Test [5] addresses Somatostatin receptor type 5 (Homo sapiens, UniProt P35346). The test is described as follows: Inhibition of [125I](Leu8,DTrp22,Tyr25)-SRIF28 binding to human sst5.

Positions of bridges follow the written chain, without caps; N, C: chain ends. Non-standard residues stand in square brackets, D forms with d. Residues, ends and D or L forms follow the SMILES beside them.

Sequence of Somatostatin receptor type 4 (P31391 whole entry): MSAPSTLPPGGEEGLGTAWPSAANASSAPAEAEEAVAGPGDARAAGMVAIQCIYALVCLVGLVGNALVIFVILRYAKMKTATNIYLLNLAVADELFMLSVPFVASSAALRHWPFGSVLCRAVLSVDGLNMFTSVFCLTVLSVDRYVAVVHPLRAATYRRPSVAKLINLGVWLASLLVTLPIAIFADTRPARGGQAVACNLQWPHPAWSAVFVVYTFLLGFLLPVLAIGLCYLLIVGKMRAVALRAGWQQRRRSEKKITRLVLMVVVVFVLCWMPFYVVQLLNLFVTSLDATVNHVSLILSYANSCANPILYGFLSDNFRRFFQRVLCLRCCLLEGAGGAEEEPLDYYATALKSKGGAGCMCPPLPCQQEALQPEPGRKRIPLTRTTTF
Sequence of Somatostatin receptor type 5 (P35346 whole entry): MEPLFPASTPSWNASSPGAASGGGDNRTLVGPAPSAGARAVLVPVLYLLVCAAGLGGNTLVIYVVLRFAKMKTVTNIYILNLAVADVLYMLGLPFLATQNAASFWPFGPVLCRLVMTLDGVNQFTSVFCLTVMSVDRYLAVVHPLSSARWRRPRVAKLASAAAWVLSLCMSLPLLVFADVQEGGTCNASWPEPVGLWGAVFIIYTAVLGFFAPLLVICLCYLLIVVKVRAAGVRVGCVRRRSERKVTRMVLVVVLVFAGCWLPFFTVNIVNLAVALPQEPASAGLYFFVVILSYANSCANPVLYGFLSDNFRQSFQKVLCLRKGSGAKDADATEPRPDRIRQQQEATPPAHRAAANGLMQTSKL
Sequence of Somatostatin receptor type 2 (P30874 whole entry): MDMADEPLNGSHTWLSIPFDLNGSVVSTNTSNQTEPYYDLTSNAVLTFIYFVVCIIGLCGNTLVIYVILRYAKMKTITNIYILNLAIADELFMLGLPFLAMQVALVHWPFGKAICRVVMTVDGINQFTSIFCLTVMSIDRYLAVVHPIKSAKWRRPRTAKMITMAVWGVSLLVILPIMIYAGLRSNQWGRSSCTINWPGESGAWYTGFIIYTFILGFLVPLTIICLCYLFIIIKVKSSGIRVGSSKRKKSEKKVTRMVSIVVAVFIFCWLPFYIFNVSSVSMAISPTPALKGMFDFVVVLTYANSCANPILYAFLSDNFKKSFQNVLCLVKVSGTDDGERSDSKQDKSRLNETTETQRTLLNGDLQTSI
Sequence of Somatostatin receptor type 3 (P32745 whole entry): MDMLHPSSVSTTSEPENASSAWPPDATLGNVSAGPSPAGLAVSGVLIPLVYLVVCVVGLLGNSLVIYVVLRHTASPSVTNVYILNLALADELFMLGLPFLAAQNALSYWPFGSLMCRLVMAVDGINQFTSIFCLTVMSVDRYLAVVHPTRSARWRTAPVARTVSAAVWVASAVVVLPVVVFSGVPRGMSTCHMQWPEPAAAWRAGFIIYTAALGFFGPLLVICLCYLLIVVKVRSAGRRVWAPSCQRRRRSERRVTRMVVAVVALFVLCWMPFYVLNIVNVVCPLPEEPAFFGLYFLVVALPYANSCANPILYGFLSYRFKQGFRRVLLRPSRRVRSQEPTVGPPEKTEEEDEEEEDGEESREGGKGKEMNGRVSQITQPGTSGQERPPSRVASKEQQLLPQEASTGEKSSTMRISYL
Sequence of Somatostatin receptor type 1 (P30872 whole entry): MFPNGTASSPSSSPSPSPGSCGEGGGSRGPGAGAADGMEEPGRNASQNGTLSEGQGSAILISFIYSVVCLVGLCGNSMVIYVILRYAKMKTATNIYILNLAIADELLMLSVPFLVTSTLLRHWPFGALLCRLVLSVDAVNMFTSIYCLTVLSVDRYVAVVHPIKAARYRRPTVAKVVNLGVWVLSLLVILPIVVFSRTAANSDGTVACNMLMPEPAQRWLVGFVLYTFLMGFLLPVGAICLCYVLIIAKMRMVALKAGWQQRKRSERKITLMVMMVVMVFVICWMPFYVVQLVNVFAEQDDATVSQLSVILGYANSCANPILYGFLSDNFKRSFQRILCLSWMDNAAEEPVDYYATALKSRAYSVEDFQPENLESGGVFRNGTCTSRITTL

For `C[C@@H](O)[C@@H]1NC(=O)[C@H](CCCCN)NC(=O)[C@@H](Cc2c[nH]c3ccccc23)NC(=O)[C@H](Cc2ccccc2)NC(=O)[C@@H](N)CSSC[C@@H](C(=O)O)NC1=O` (H-CF[dW]KTC-OH; disulfide 1-6), the IC50 in test [1] was over 1000 nM; in test [2], 378 nM; in test [3], over 1000 nM; in test [4], over 1000 nM; in test [5] it was over 1000 nM.
As for `CONC(=O)Nc1ccc(C[C@@H]2NC(=O)[C@@H](NC(=O)[C@@H](Cc3ccccc3)NC(N)=O)CSSC[C@@H](C(=O)N[C@H](C(N)=O)[C@@H](C)O)NC(=O)[C@H]([C@@H](C)O)NC(=O)[C@H](CCCCN)NC(=O)[C@@H](Cc3c[nH]c4ccccc34)NC2=O)cc1`, the IC50 was 958 nM in test [1]; 3.1 nM in test [2]; over 1000 nM in test [3]; over 1000 nM in test [4]; 539 nM in test [5].
For `C[C@@H]1NC(=O)[C@@H](NC(=O)[C@H](N)Cc2ccccc2)CSSC[C@@H](C(=O)N[C@H](C(N)=O)[C@@H](C)O)NC(=O)[C@H]([C@@H](C)O)NC(=O)[C@H](CCCCN)NC(=O)[C@@H](Cc2c[nH]c3ccccc23)NC1=O`, the IC50 was 543 nM in test [1]; 3.6 nM in test [2]; over 1000 nM in test [3]; over 1000 nM in test [4]; 158 nM in test [5].
Turning to `C[C@@H](O)[C@H](NC(=O)[C@@H]1CSSC[C@H](NC(=O)[C@H](Cc2ccccc2)NC(N)=O)C(=O)N[C@@H](Cc2ccc(NC(N)=O)cc2)C(=O)N[C@H](Cc2c[nH]c3ccccc23)C(=O)N[C@@H](CCCCN)C(=O)N[C@@H]([C@@H](C)O)C(=O)N1)C(N)=O`, the IC50 in test [1] is 942 nM; in test [2], 7.5 nM; in test [3], over 1000 nM; in test [5], 109 nM.
For `C[C@@H](O)[C@H](NC(=O)[C@@H]1CSSC[C@H](NC(=O)[C@H](N)Cc2ccccc2)C(=O)N[C@@H](Cc2ccccc2)C(=O)N[C@H](Cc2c[nH]c3ccccc23)C(=O)N[C@@H](CCCCN)C(=O)N[C@@H]([C@@H](C)O)C(=O)N1)C(N)=O`, the IC50 was 38 nM in test [1], 2.2 nM in test [2], over 1000 nM in test [3] and over 10000 nM in test [4].
`C[C@@H](O)[C@H](NC(=O)[C@@H]1CSSC[C@H](NC(=O)[C@@H](Cc2ccccc2)NC(N)=O)C(=O)N[C@@H](Cc2ccc(NC(N)=O)cc2)C(=O)N[C@H](Cc2c[nH]c3ccccc23)C(=O)N[C@@H](CCCCN)C(=O)N[C@@H]([C@@H](C)O)C(=O)N1)C(N)=O`: the IC50 in test [1] is 210 nM; in test [2], 6.2 nM; in test [3], over 1000 nM; in test [5] it was 77 nM.
